Consider three molecules from paper PMC6435255 (Nature chemistry, 2018).

For experiment [1], the target named is T1, hENT1 (Homo sapiens, UniProt Q99808).
T1 sequence (Q99808 1-456): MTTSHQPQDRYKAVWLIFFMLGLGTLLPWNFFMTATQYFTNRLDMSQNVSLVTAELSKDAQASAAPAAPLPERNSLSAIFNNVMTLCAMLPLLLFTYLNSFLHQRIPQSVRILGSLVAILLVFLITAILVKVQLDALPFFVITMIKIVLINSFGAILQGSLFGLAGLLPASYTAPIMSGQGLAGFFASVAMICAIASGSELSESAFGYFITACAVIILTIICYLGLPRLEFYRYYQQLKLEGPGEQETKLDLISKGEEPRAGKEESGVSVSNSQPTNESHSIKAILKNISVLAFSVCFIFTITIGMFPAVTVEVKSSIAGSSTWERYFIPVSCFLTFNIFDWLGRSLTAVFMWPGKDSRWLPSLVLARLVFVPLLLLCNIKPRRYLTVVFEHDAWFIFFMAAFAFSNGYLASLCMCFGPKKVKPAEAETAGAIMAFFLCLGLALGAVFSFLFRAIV
Type of experiment: cell-based. The note with it: PK15-ENT1 cells, combined with rapadocin.

Experiment [2] deals with Id1-Luc luciferase reporter. Nature of the experiment: BMP reporter gene assay. The class given is cell-based, human. The note with it: Jurkat T cells, 10 µM, 18 h. In general terms: Reporter assays use an easily measured gene product as a stand-in for the process of interest.
Experiment [3] concerns the target T1, hENT1. Briefly: Affinity pulldown with biotinylated rapadocin, red blood cell membrane extract. The class given is binding. Conditions: competitor.
Experiment [4] concerns the target hENT1 (Homo sapiens, UniProt P62942+Q99808). Nature of the experiment: GST-FKBP12 affinity pulldown, red blood cell membrane extract. The class given is binding. Conditions: competitor.
Another experiment has as its system HUVEC. Briefly: Adenosine. Type of experiment: cell-based, human.

hENT1 (Homo sapiens, UniProt P62942+Q99808), sequence (P62942 whole entry, one chain of several): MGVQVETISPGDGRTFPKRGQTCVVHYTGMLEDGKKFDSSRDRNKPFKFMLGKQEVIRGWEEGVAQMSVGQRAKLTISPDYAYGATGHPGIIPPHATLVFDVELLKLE

As to `COc1ccc(-c2ccc3c(N4CCOC[C@@H]4C)nc(N4CCOC[C@@H]4C)nc3n2)cc1CO` [AZD8055], the “antagonism of rapadocin inhibition of hENT1-mediated thymidine uptake” value at hENT1 [1] was “did not antagonize”.
For the molecule `C=CC[C@@H]1/C=C(\C)C[C@H](C)C[C@H](OC)[C@H]2O[C@@](O)(C(=O)C(=O)N3CCCC[C@H]3C(=O)O[C@H](/C(C)=C/[C@@H]3CC[C@@H](O)[C@H](OC)C3)[C@H](C)[C@@H](O)CC1=O)[C@H](C)C[C@@H]2OC` [FK506], the “antagonism of rapadocin inhibition of hENT1-mediated thymidine uptake” value on hENT1 [1] is listed as “antagonize”. Besides, the “activation of the Id1-Luc reporter gene” value in experiment [2] is listed as “activated the Id1-Luc reporter gene”. In addition, the “competition of hENT1 binding of the biotin-rapadocin probe” value on hENT1 [3] is given as “not appreciably”. For the same molecule, the “competition of GST-FKBP12-rapadocin association with hENT1” value at hENT1 [4] was “sensitive to competition”. The “IC50, nucleoside uptake” value with HUVEC was “low micromolar range”.
The corresponding values for `CO[C@H]1C[C@@H]2CC[C@@H](C)[C@@](O)(O2)C(=O)C(=O)N2CCCC[C@H]2C(=O)O[C@H]([C@H](C)C[C@@H]2CC[C@@H](O)[C@H](OC)C2)CC(=O)[C@H](C)/C=C(\C)[C@@H](O)[C@@H](OC)C(=O)[C@H](C)C[C@H](C)/C=C/C=C/C=C/1C` [rapamycin] are “antagonize”, “activated the Id1-Luc reporter gene”, “not appreciably”, “sensitive to competition” and “low micromolar range”.
